Earlier results, collected in US20100049492A1, “METHOD AND APPARATUS FOR MODELING SKIN SENSITIZATION” (Entelos, Inc., priority 2006, published 2010).

test system: lymph node (LN) proliferation; settings: categories based on data available in the public domain

SMILES	chemical category (skin sensitizer strength)
Oc1ccc(O)cc1 [hydroquinone]	strong sensitizers
Nc1ccc(C(=O)O)cc1 [PABA]	non-sensitizers
CCCCCCCC/C=C\CCCCCCCC(=O)OCCOCC(OCCO)C1OCC(OCCO)C1OCCO (stereo not drawn) [Tween 80]	non-sensitizers
CC=Cc1ccc(O)c(OC)c1 [isoeugenol]	moderate sensitizers
CCO/C=C1\N=C(c2ccccc2)OC1=O [oxazalone]	strong sensitizers
O=C/C=C/c1ccccc1 [cinnamic aldehyde]	moderate sensitizers
